The results in this text go back to patent publication US9975861B2, “Dual inhibitor compounds for use in the treatment of neurodegenerative disorders and alzheimer's disease” (FONDAZIONE ISTITUTO ITALIANO DI TECNOLOGIA, priority 2014, dated 2018).

In assay [1] the test system is neurosphere cultures of primary rat neural stem cells. Nature of the assay: Neurosphere cultures, immunocytochemistry for neural markers. Type of assay: cell-based. The settings on record: 10 μM during a week; compared to control (FIG. 3). The source says:
Neurosphere (NS) cultures were derived from the hippocampus of adult rats and induced to proliferate using established passaging methods to achieve optimal cellular expansion according to published protocols [Ferron, S. R.; Andreu-Agullo, C.; Mira, H.; Sanchez, P.; Marques-Torrejon, M. A.; Farinas, I. A combined ex/in vivo assay to detect effects of exogenously added factors in neural stem cells. Nature Protoc. 2007, 2, 849-859]. Rats were decapitated, brains removed, and the hippocampus dissected as described [Morales-Garcia, J. A.; Luna-Medina, R.; Alfaro-Cervello, C.; Cortes-Canteli, M.; Santos, A.; Garcia-Verdugo, J. M.; Perez-Castillo, A. Peroxisome proliferator-activated receptor gamma ligands regulate neural stem cell proliferation and differentiation in vitro and in vivo. Glia 2011, 59, 293-307]. Briefly, cells were seeded into 12-well dishes and cultured in DMEM/F12 (1:1, Invitrogen) containing 10 ng/mL epidermal growth factor (EGF, Peprotech, London, UK), 10 ng/mL fibroblast growth factor (FGF, Peprotech), and B27 medium (Gibco). After 3 days in culture, NS were cultivated in the presence or absence of the indicated compounds (10 μM) during a week. After that, NS from 10-day old cultures were plated for 72 hours onto 100 μg/mL poly-L-lysine-coated coverslips in the absence of exogenous growth factors.
Neurogenesis is a crucial property for new AD-modifying drugs, since it confers the potential to increase endogenous regeneration as a repair mechanism in the damaged brain, and reduce neuronal loss and degeneration. Considering that GSK-3β inhibition is reported to regulate and increase neurogenesis [Lange, C.; Mix, E.; Frahm, J.; Glass, A.; Muller, J.; Schmitt, O.; Schmole, A. C.; Klemm, K.; Ortinau, S.; Hubner, R.; Frech, M. J.; Wree, A.; Rolfs, A. Small molecule GSK-3 inhibitors increase neurogenesis of human neural progenitor cells. Neurosci. […]

Assay [2] has as its system primary astrocytes and microglial cells. Nature of the assay: Nitrites measurement (Griess reaction) in LPS-stimulated primary glial cells. The class given is cell-based, rat. The settings on record: for reduction of LPS-induced nitrite production: compounds 10 μM for 1 hour, then LPS 10 μg/mL for 24 hours, astrocytes and microglia, potency compared with 6-amino triazinones A-C (FIGS. 2A, 2B); for nitrite production in astrocyte cells: compounds 10 μM, LPS 10 μg/mL 24 hours, astrocyte cells (FIG. 2A). Here is the method:
Astrocytes were prepared from neonatal (P2) rat cerebral cortex, as previously described by Luna-Medina et al. [Luna-Medina, R.; Cortes-Canteli, M.; Alonso, M.; Santos, A.; Martinez, A.; Perez-Castillo, A. Regulation of inflammatory response in neural cells in vitro by thiadiazolidinones derivatives through peroxisome proliferator-activated receptor gamma activation. J. Biol. Chem. 2005, 280, 21453-21462].
Briefly, after removal of the meninges, the cerebral cortex was dissected, dissociated, and incubated with 0.25% trypsin/EDTA at 37° C. for 1 hour. After centrifugation, the pellet was washed 3 times with Hank's balanced salt solution (HBSS) (Gibco) and the cells were placed on noncoated flasks and maintained in HAMS/Dulbecco's modified eagle's medium (DMEM) (1:1) medium containing 10% of fetal bovine serum (FBS). After 15 days, the flasks were agitated on an orbital shaker for 4 hours at 240 rpm at 37° C., the supernatant was collected, centrifuged, and the cellular pellet containing the microglial cells resuspended in complete medium (HAMS/DMEM (1:1) containing 10% FBS) and seeded on uncoated 96-well plates. Cells were allowed to adhere for 2 hours, and the medium was removed to eliminate nonadherent oligodendrocytes. New fresh medium containing 10 ng/mL of granulocyte-macrophage colony-stimulating factor (GM-CSF) was added. The remaining astroglial cells adhered on the flasks were then trypsinized, collected, centrifugated, and plated onto 96-well plates with complete medium. The purity of cultures obtained by this procedure was >98% as determined by immunofluorescence with the OX42 (microglial marker) and the glial fibrillary acidic protein (GFAP, astroglial marker) antibodies.
The potential anti-inflammatory activity of the selected compounds was tested by evaluating the production of nitrites from primary cultured glial cells. Primary cultures of astrocytes and microglia were incubated with the selected compounds (10 μM) for 1 hour, and then cells were cultured for another 24 hours with a potent inflammatory agent, such as lipopolysaccharide (LPS) (10 μg/mL). LPS is able to induce nitrite production and accumulation in the culture medium, which was assayed by the standard Griess reaction. Supernatants were collected from the media and mixed with an equal volume of Griess reagent (Sigma). Samples were then incubated at rt for 15 minutes and absorbance read using a plate reader at 492/540 nm.

For the compound `CCNC1=NC(c2ccc(F)cc2)NC(=O)N1` (racemic) [Example 3, 6-(ethylamino)-4-(4-fluorophenyl)-3,4-dihydro-1,3,5-triazin-2(1H)-one], the “number of β-tubulin positive cells (immature neuronal marker)” value in assay [1] is “significantly increased”. Besides, in assay [2], the “reduction of LPS-induced nitrite production” value is reported as “higher potency” and the “nitrite production in astrocyte cells” value is “restore nitrite production to basal level”.

For the compound `CCCNC1=NC(c2ccc(F)cc2)NC(=O)N1` (stereo not drawn) [Example 6, 4-(4-fluorophenyl)-6-(propylamino)-3,4-dihydro-1,3,5-triazin-2(1H)-one], the “number of MAP-2 positive cells (mature neuronal marker)” value in assay [1] is reported as “significantly amplified”. For the same compound, in assay [2], the “reduction of LPS-induced nitrite production” value is listed as “higher potency” and the “nitrite production in astrocyte cells” value was “restore nitrite production to basal level”.
